Laboratory results taken from patent publication US20060204443A1, “Methods for tumor treatment using dendrimer conjugates” (The Government of the USA as represented by the Secretary …, priority 2005, published 2006).
Where “and” joins values, the source holds several entries; their conditions need not be identical. Equal entries are not always repeated.

Experiments:
[1] = Serum phantoms: T1-weighted MRI signal intensity vs G6 agent concentration; type: physicochemical; conditions: FIG. 21B
Source text: In order to verify the correlation between T1-weighted MRI signal intensity and concentration of G6 agent, serum phantoms were made containing various concentrations of the G6 agent with a bovine serum (GIBCO, Invitrogen Co., Carlsbad, Calif.) and MR images were obtained with the same imaging technique as shown above. Three sets of phantoms, high ([…]-40 mMGd), intermediate (0.1-1 mMGd) and low (0.01-0.1 mMGd) concentrations, were studied. A sample of Gd-DTPA was used as an internal control.

[2] = system: lymphatic drainage from tumor-bearing mammary glands; assay: MR mammo-lymphangiography in breast tumor models (BALB-neuT, PT-18 xenograft); type: in vivo, mice
Source text: The breast-tumor bearing mice were thirty one week-old BALB-neuT mice (n=3) transgenic for the rat HER-2/neu (Erb B2) oncogene under the control of the mouse mammary tumor virus promotor (MMTV). […] BALB-neuT mice were used because of their spontaneous development of bilateral breast cancers and lymph node metastases. Heterozygous female BALB-neuT mice (BALB/c background) develop mammary gland lobule hyperplasia at 5-6 weeks of age that progresses to atypical hyperplasia by 8-9 weeks, followed by in situ carcinoma by 14 weeks, becoming invasive carcinoma usually by 21 week of age. Rovero et al., J. Immunol.; 165:5133-42, 2000. Most metastatic lymph nodes from the mouse mammary pad localize in the neck, lateral thoracic, or axillary region.
Tumor xenografts of PT-18, a murine mast cell line, were introduced into the left mammary pad in athymic nu/nu mice. When 10^7 PT-18 cells were injected in the left mammary pad of 10 athymic nu/nu mice, six mice developed tumor masses in the left axillary lymph nodes within three weeks.
Mice were anesthetized with 1.15 mg sodium pentobarbital (Dainabot, Osaka, Japan), and then injected with 0.15-0.24 μmol Gd/5-8 μL of the PAMAM-G6 contrast agent into normal mammary glands or mammary tissue surrounding a tumor (peritumorally). Dynamic micro-MR images were obtained using a 1.5-Tesla superconductive magnet unit (Signa LX, General Electric Medical System, Milwaukee, Wis.) with a birdcage type coil of 3 cm diameter fixed by a custom made coil holder. Single and double “breast coils” used for imaging breasts in humans are commercially available, for example, from GE Medical Systems (Milwaukee, Wis.) and are routinely available in outpatient MRI centers. The mice were wrapped with gauze to stabilize their body temperature and were placed at the center of the coils. […]

[3] = system: Draining Lymph Nodes (LNs) from the Normal Breast Tissue; assay: Dynamic micro-MR mammo-lymphangiography after injection into normal mammary gland (Example 1); type: in vivo, mice
Protocol: Mice were anesthetized with 1.15 mg sodium pentobarbital (Dainabot, Osaka, Japan), and then injected with 0.15-0.24 μmol Gd/5-8 μL of the PAMAM-G6 contrast agent into normal mammary glands or mammary tissue surrounding a tumor (peritumorally). Dynamic micro-MR images were obtained using a 1.5-Tesla superconductive magnet unit (Signa LX, General Electric Medical System, Milwaukee, Wis.) with a birdcage type coil of 3 cm diameter fixed by a custom made coil holder. Single and double “breast coils” used for imaging breasts in humans are commercially available, for example, from GE Medical Systems (Milwaukee, Wis.) and are routinely available in outpatient MRI centers. The mice were wrapped with gauze to stabilize their body temperature and were placed at the center of the coils.
In order to evaluate the lymphatic drainage from the normal mammary gland of either Balb/c mice (n=5) or athymic nu/nu mice (n=5), 3D-fast spoiled gradient echo (3D-fastSPGR (efgre3d package; Signa Horizon, GE); repetition time/echo time 19.2/7.2 msec; inversion time 47 msec; 31.2 kHz, flip angle 30°, 4 excitations; 36 slice encoding steps; scan time 4 min 49 seconds) with chemical shift fat-suppression was used 6, 12, 18, 24, 30, 36, 42, and 48 min after injection of the contrast agent. The coronal images were reconstructed with 0.6-mm section thickness every 0.3-mm. The field of view was 8×4 cm and the size of the matrix was 512×256. The slice data were processed into 3D images using the maximum intensity projection (MIP) method with the same window and level (window 3500 and level 2100) (Advantage Windows, General Electric Medical System). After imaging, the mice were sacrificed by carbon dioxide inhalation.
Athymic nu/nu mice (n=4) were anesthetized and injected with 0.15 μmol Gd of GPDM into the mammary gland, and images were taken 12, 24, and 36 min after injection. Following these three images, these mice were subsequently injected with 0.15 μmol Gd of PAMAM-G6 contrast agent in the mammary gland, and images were taken at 12 and 24 min post-injection of the PAMAM-G6 contrast agent (at 48 and 60 min post-injection of GPDM).

[4] = PT-18 model, peritumoral injection

## PAMAM-G6D-(Gd-1B4M)256 dendrimer conjugate
[1]
  T1 relaxivity: much higher T1 relaxivity than Gd-DTPA
[2]; BALB-neuT model
  Imaging of enlarged metastatic lymph nodes and dilated lymphatic vessels: clearly imaged
[2]; [4]
  Enhancement of axillary lymph node tissue with metastatic tumor cells: did not shown enhancement
  Lymphatic vessel flowing into the lymph node with a metastatic tumor: dilated and showed enhancement
[3]; 6 min after injection
  Visualized LNs/Total Examined LNs, Axillary LN: visualized at the initial (6 min) time point in all 10 mice and 10/10
  Visualized LNs/Total Examined LNs, Lateral thoracic LN: 0/10
  Visualized LNs/Total Examined LNs, Superficial cervical LN: 1/10
[3]; 12 min after injection
  Visualized LNs/Total Examined LNs, Axillary LN: 10/10
  Visualized LNs/Total Examined LNs, Lateral thoracic LN: 1/10
  Visualized LNs/Total Examined LNs, Superficial cervical LN: 1/10
[3]; 18 min after injection
  Visualized LNs/Total Examined LNs, Axillary LN: 10/10
  Visualized LNs/Total Examined LNs, Lateral thoracic LN: 2/10
  Visualized LNs/Total Examined LNs, Superficial cervical LN: 1/10
[3]; 24 min after injection
  Visualized LNs/Total Examined LNs, Axillary LN: 10/10
  Visualized LNs/Total Examined LNs, Lateral thoracic LN: 4/10
  Visualized LNs/Total Examined LNs, Superficial cervical LN: 2/10
[3]; 30 min after injection
  Visualized LNs/Total Examined LNs, Axillary LN: 10/10
  Visualized LNs/Total Examined LNs, Lateral thoracic LN: 4/10
  Visualized LNs/Total Examined LNs, Superficial cervical LN: 2/10
[3]; 36 min after injection
  Visualized LNs/Total Examined LNs, Axillary LN: 10/10
  Visualized LNs/Total Examined LNs, Lateral thoracic LN: 5/10
  Visualized LNs/Total Examined LNs, Superficial cervical LN: 3/10
[3]; 42 min after injection
  Visualized LNs/Total Examined LNs, Axillary LN: 10/10
  Visualized LNs/Total Examined LNs, Lateral thoracic LN: 6/10
  Visualized LNs/Total Examined LNs, Superficial cervical LN: 3/10
[3]; 48 min after injection
  Visualized LNs/Total Examined LNs, Axillary LN: 10/10
  Visualized LNs/Total Examined LNs, Lateral thoracic LN: 6/10
  Visualized LNs/Total Examined LNs, Superficial cervical LN: 3/10
[3]; athymic nu/nu mice, 0.15 μmol Gd into the mammary gland, GPDM imaged at 12, 24, 36 min, then PAMAM-G6
  Visualization of draining lymph nodes and lymphatic vessels (FIG. 5): clearly visualized
